Experiments:
Format in all cases: in vivo
[1] = Flavor evaluation, tasted in water; conditions: tasted in water at 10 ppm
Excerpt: Based on this flavor evaluation, it is indicative that the Structure I and Structure II of our invention are useful for augmenting, enhancing or imparting a taste or cooling or refreshing effect in or to a cosmetic, skin care product, lip gloss, hair care product, cologne, shaving balm, after-shave lotion, dairy product, fruit ice preparation, confectionery, mouth and throat lozenges, cough mixtures, decongestants, antacids, oral analgesics or other medicinal products, chewing gum, candy (including hard candy and soft candy), fondants, toothpaste, mouthwashes, mineral water, alcoholic beverage, non-alcoholic beverage, powdered beverage, or other foodstuff as a result of adding to a cosmetic, skin care product, lip gloss, hair care product, cologne, shaving balm, after-shave lotion, dairy product, fruit ice preparation, confectionery, lozenges, cough mixtures, decongestants, antacids, oral analgesics or other medicinal product, chewing gum, candy, fondants, toothpaste, mouthwashes, mineral water, alcoholic beverage, non-alcoholic beverage, powdered beverage, or other foodstuff, a taste or cooling or refreshing effect augmenting, enhancing or imparting quantity and concentration of Structure I and Structure II.

[2] = Evaluation of cooler mixed with fondant
Excerpt: In this example, the Structure I and II were mixed with a fondant, commercially available from Confectionary House, Troy, N.Y., at levels listed in Table 1.

[3] = Chewing gum profiled by trained descriptive analysis panel; conditions: level 0.20%
Experimental: The following gum base formulation was prepared: […]
The orange flavor is commercially available from IFF. The gum base, Hades-T is commercially available from Cafosa Gum, Barcelona Spain.
Structure I and II by itself at levels detailed in the Tables below was blended with the gum base in a Sigma mixer. The resultant chewing gum blend was then manufactured into strips 1 inch in width and 0.1 inches in thickness. These strips were cut into lengths of 3 inches each.
Samples were profiled by a highly trained descriptive analysis panel. The ballot consisted of the following terms: Total impact, total mint, cooling-mouth closed, cooling-breath in, nasal cooling—breathe in, throat irritation, bitterness, tongue irritation, numbing. Each attribute was rated at discrete time points including 1 minute, 3 minutes, 5 minutes, 10 minutes, 20 minutes, and 30 minutes.

Row | SMILES | Taste description (cooling) [1] | COMMENTS (cooling evaluation in fondant) ([2]; 50 ppm) | COMMENTS (cooling evaluation in fondant) ([2]; 200 ppm) | Time and Evaluation (cooling in chewing gum) ([3]; 0-1 min) | Time and Evaluation (cooling in chewing gum) ([3]; 1-3 min) | Time and Evaluation (cooling in chewing gum) ([3]; 3-5 min) | Time and Evaluation (cooling in chewing gum) ([3]; 5-10 min) | Time and Evaluation (cooling in chewing gum) ([3]; 10-20 min) | Time and Evaluation (cooling in chewing gum) ([3]; 20-30 min)
1 | CC(C)(C)C1(C(=O)NC2CC2)CCCCC1 [Structure I, 1-tert-butyl-N-cyclopropylcyclohexanecarboxamide] | gradual onset cooling | Slight irritation in rear of throat, slight cooling | Moderate cooling, consistent, and slight tingle. |  |  |  |  |  | 
2 | COCCNC(=O)C1(C(C)(C)C)CCCCC1 [Structure II, 1-tert-butyl-N-[2-methoxy-ethyl]cyclohexanecarboxamide] | wet cardboard, slightly cooling | Slight bitterness, very little cooling. | Good Cooling low to moderate, slight throat | no perceivable cooling slightly bitter, | Slight cooling with slight tingle on tongue | full mouth cooling not very intense, slight | slight residual cooling very weak | still slight cooling, slight tingle | cooling diminished very weak, very mild

From patent US20110070171A1, “1-tert-Butylcyclohexanecarboxamide and uses thereof as cooling compounds” (priority 2009, published 2011)
